The values that follow come from patent publication EP0499162A2, “GM-CSF inhibiting oligopeptides” (Bristol-Myers Squibb Company, priority 1991, dated 1992).

This experiment deals with GM-CSF. Kind of experiment: GM-CSF activity on bone marrow precursors (liquid culture, methylene blue dye absorbance of adherent granulocytes and macrophages). It counts as cell-based, murine. The note with it: at any of the test concentrations (Figure 2). On the procedure: To determine the effect of the desired inhibitory oligopeptide, the following assay, using murine bone marrow precursors, was developed. Of course, if using an oligopeptide derivable from a species other than murine, substitution of cells from that species into the assay procedure would be required.
The biological activity of GM-CSF was determined in a liquid culture system of murine bone marrow cells (see, e.g., I. Bursuker, et al., J. Reticuloendothelial Soc., 25, 533 (1979)). Bone marrow cells were collected from femurs and tibia of 10 to 12 week old CB6F1 (C57BLxBalb/c) male mice (Harlan-Sprague Dawley, Inc., Indianapolis, Indiana) by flushing dissected and clean bones with phosphate buffered saline ("PBS", GIBCO, Grand Island, New York). Viable cell count was determined using trypan blue. The cells then were plated (1 ml/well; 2 X 10^5 cells/ml) in 24-well tissue culture plates (Costar, Cambridge, MA). Granulocyte-macrophage colony stimulating factor ("GM-CSF"; 2 ng/ml; recombinantly produced and available from PeproTech, Inc., Rocky Hill, NJ) and the desired oligopeptide were added at the desired concentration to the wells. […] The dye absorbance was measured at 620 nm in a MCC/340 Titertech Multiscan plate reader (Eflab, Helsinki, Finland). The dye absorbance reading is proportional to the number of cells in the culture.

Where no end group is shown, it is not given here.

“YYQTYCPPTPETD [Oligopeptide P96-109, oligopeptide spanning a region of the murine GM-CSF molecule, 13 amino acids]”: the “effect on the biological activity of GM-CSF” value is reported as “did not affect”.
